# Measured values: patent publication US9476883B2, “Cellular recognition conjugates and methods of use for the histological analysis of cancer tissue using MALDI-MS imaging” (GEORGIA STATE UNIVERSITY RESEARCH FOUNDATION, priority 2011, dated 2016)
# Entries after “also recorded” stand apart in the source; their conditions may differ.
# How the values were obtained:
# [1] = tested on: renal cell carcinoma tissue; test: MALDI-IMS of alcohol fixed (UMFIX/Sakura) renal cell carcinoma tissue exposed to the imaging agent; assay type: binding
# Source text: FIG. 4 depicts the MALDI-IMS of a renal cell carcinoma tissue sample exposed to the imaging agent of Example 3. FIG. 5 depicts the same tissue sample stained with Sakura/UMFx alcohol.
# These red pixels correlate to the MALDI peaks in the spectra shown in FIG. 1 and the color intensity is related to peak abundance as shown in the expression scale. Peaks were obtained in the absence of any chemical matrix. […] As such, this provides a method for probing tumor tissue microarrays prepared from alcohol or formalin fixed tissues.
# [2] = tested on: cells expressing sialyl Lewis X antigen; test: MALDI-IMS imaging of a renal cell carcinoma tissue slice incubated with the imaging agent; assay type: binding; settings: fresh-frozen renal tissue with tumor and normal regions, 7 μm slice, 2 ng/μl in methanol, overnight at 4° C., no matrix
# Experimental: A tissue slice containing renal cell carcinoma was immunostained (mouse monoclonal antibody, GenWay Biotech San Diego, Calif.) that expressed regions coincident with the tumor area (dark stained bottom tip area of FIG. 3; confirmed by pathological analysis).
# An adjacent tissue slice (7 μm) was placed on a conductive slide and incubated with the imaging agent of Example 3 in 100% methanol (2 ng/μl) in a humid chamber overnight at 4° C. Slides were washed for 5 minutes in PBS followed by brief water wash to remove any unbound material. The slides are placed in a desiccator for 20 minutes and analyzed directly by MALDI-TOF (no matrix is added) in the reflectron mode using a laser raster width of 200 μm.
# The stabilized carbocation is used in this example located and confirm immunological and pathology analysis of this sample that the MALDI indicated region corresponded to the area associated with cancerous tissue.
structure (smiles),measurement,setting,value
"COc1ccc(C(SCCC(=O)NCCCn2cc(COc3cc(C(=O)N(C)Cc4c5ccccc5c(CN(C)Cc5ccccc5B(O)O)c5ccccc45)ccc3C(=O)N(C)Cc3c4ccccc4c(CN(C)Cc4ccccc4B(O)O)c4ccccc34)nn2)(c2ccc(OC)cc2)c2ccc(OC)c(C#CCCC(=O)NCc3ccccc3)c2)cc1 [Example 3, [({[({[({2-[(1-{3-[({3-[5-(Benzylamino)-5-oxopent-1-yn-1-yl]-4-methoxyphenyl}bis(4-methoxyphenyl)methyl)thio]propanamido}prop-3-yl)-1H-1,2,3-triazol-4-yl]methoxy}terephthaloyl)bis(methylazanediyl)]bis(methylene)}bis(anthracene-10,9-diyl))bis(methylene)]bis(methylazanediyl)}bis(methylene))bis(2,1-phenylene)]-diboronic acid]",binding of the imaging agent to alcohol fixed tumor tissue,[1],affixed to the cell surface; also recorded: capable of binding to alcohol fixed renal tissues
same,"binding of the imaging agent to tissue, detected as stabilized carbocation in MALDI-IMS",[2],bound only to the cells expressing sialyl Lewis X antigen
